Data set [1] can be described thus: Pharmacokinetic study in ICR mice. The settings on record: male, mouse, po, 10 mg·kg^-1 by gavage, plasma. It counts as in vivo. The procedure:
Each compound was prepared into a 10 mg/mL stock solution with DMSO.
Mixed solvent preparation: Tween 80:PEG 400:Water=1:9:90 (v/v/v).
Accurately aspirated 450 μL of DMSO stock solution of the compounds at a concentration of 10 mg/mL to a glass vial, respectively, added an appropriate volume of DMSO and mixed solvent, the ratio of solvent in the final preparation is DMSO:mixed solvent (v/v)=10:90, vortexed (or sonicated), dispersed homogeneously, to obtain the concentration of 1 mg/mL of 4.5 mL of the administered test solution respectively.
Male 6-10 weeks old ICR mice (mouse source: Viton Lever Laboratory Animal Technology Co., Ltd.) were taken, 6 mice in each group, and the mice were fasted overnight and fed 4 hours after drug administration. On the day of the experiment, mice were given 10 mg·kg^−1 of compound test solution by gavage respectively. After the administration of the drug, mice were blood sampled at 0, 5 min, 15 min, 30 min, 1 h, 2 h, 4 h, 8 h, and 24 h from the orbital region of about […], which was placed in EDTA-K2 anticoagulant tubes. […] Plasma concentration was determined by LC-MS/MS method.
Pharmacokinetic parameters were calculated using the non-compartment model in Pharsight Phoenix 7.0, and the results are detailed in the following table.

Data set [2] can be described thus: Physicochemical stability study of crystal forms (XRPD and HPLC). From the text:
Use XRPD and HPLC to detect the physical and chemical stability of the samples.

Data set [3] in a line: Solubility in water and various pH media. The conditions noted are these: thermodynamic from solid. The class given is physicochemical.
Setting [4] is: After placement, 40° C./75% RH, 5 days.
Setting [5] is: After placement, 40° C./75% RH, 10 days.
Where [6] appears, read: After placement, 40° C./75% RH, 30 days.
Where [7] appears, read: After placement, 60° C., 5 days.
[8] abbreviates: After placement, 60° C., 10 days.
[9] abbreviates: After placement, 60° C., 30 days.
[10] abbreviates: After placement, 75% RH, 5 days.
Where [11] appears, read: After placement, 75% RH, 10 days.
Where [12] appears, read: After placement, 75% RH, 30 days.
[13] abbreviates: After placement, 92.5% RH, 5 days.
Setting [14] is: After placement, 92.5% RH, 10 days.
The mark [15] stands for this setting: After placement, Light, 10 days.

By half-life is commonly meant how long it takes for the measured level to halve. Lower therefore signals rapid decline. On to `COCc1ccc(Nc2nc(Nc3ccc4c(c3)CC[C@@H](N3CCCC3)CC4)ncc2Cl)c(P(C)(C)=O)c1` [Example 1, (S)-(2-((5-chloro-2-((7-(pyrrolidin-1-yl)-6,7,8,9-tetrahydro-5H-benzo[7]annulen-2-yl)amino)pyrimidin-4-yl)amino)-5-(methoxymethyl)phenyl)dimethylphosphine oxide], for which the half-life in data set [1] was 81 min.

Regarding `CN1CCN(Cc2ccc(Nc3ncc(Cl)c(Nc4ccccc4S(=O)(=O)N(C)C)n3)cc2)CC1` [Positive drug 2 (TP0903), reference compound], the half-life in data set [1] was 72 min.

As a reminder, the solubility is how much of the substance goes into solution per volume. For the compound `COCc1ccc(Nc2nc(Nc3ccc4c(c3)CC[C@@H](N3CCCC3)CC4)ncc2Cl)c(P(C)(C)=O)c1.Cc1ccc(S(=O)(=O)O)cc1` [crystal form B, mono-p-toluenesulfonate monohydrate of (S)-(2-((5-chloro-2-((7-(pyrrolidin-1-yl)-6,7,8,9-tetrahydro-5H-benzo[7]annulen-2-yl)amino)pyrimidin-4-yl)amino)-5-(methoxymethyl)phenyl)dimethylphosphine oxide], the Crystal form result in data set [2] (setting [4]), in data set [2] (setting [5]), in data set [2] (setting [6]), in data set [2] (setting [7]), in data set [2] (setting [8]) and in data set [2] (setting [9]) was “Crystal form B” throughout. Moreover, the Crystal form entry in data set [2] (setting [10]) was “Crystal form B”; in data set [2] (setting [11]) it was “Crystal form B”; in data set [2] (setting [12]), “Crystal form B”; in data set [2] (setting [13]) it was “Crystal form B”; in data set [2] (setting [14]) it was “Crystal form B”; in data set [2] (After placement, Light, 5 days) it was “Crystal form B”. In addition, the Crystal form result in data set [2] (setting [15]) and in data set [2] (Before placement) was “Crystal form B” each time. For the same compound, the Maximum single impurity entry in data set [2] (setting [4]), in data set [2] (setting [5]), in data set [2] (setting [6]), in data set [2] (setting [7]), in data set [2] (setting [8]) and in data set [2] (setting [9]) was “Maximum single impurity: 0.04 A %” in each case. In addition, the Maximum single impurity result was “Maximum single impurity: 0.04 A %” in data set [2] (setting [10]); “Maximum single impurity: 0.04 A %” in data set [2] (setting [11]); “Maximum single impurity: 0.04 A %” in data set [2] (setting [12]); “Maximum single impurity: 0.04 A %” in data set [2] (setting [13]); “Maximum single impurity: 0.04 A %” in data set [2] (setting [14]); “Maximum single impurity: 0.05 A %” in data set [2] (After placement, Light, 5 days). The Maximum single impurity entry in data set [2] (setting [15]) was “Maximum single impurity: 0.10 A %”; in data set [2] (Before placement), “impurity: 0.04 A %”. In addition, the Purity result in data set [2] (setting [4]) was “Purity: 99.81 A %”; in data set [2] (setting [5]), “Purity: 99.82 A %”; in data set [2] (setting [6]), “Purity: 99.81 A %”; in data set [2] (setting [7]) it was “Purity: 99.81 A %”; in data set [2] (setting [8]), “Purity: 99.82 A %”; in data set [2] (setting [9]) it was “Purity: 99.80 A %”. Moreover, the Purity entry in data set [2] (setting [10]) is “Purity: 99.81 A %”; in data set [2] (setting [11]), “Purity: 99.82 A %”; in data set [2] (setting [12]) it was “Purity: 99.80 A %”; in data set [2] (setting [13]), “Purity: 99.81 A %”; in data set [2] (setting [14]), “Purity: 99.82 A %”; in data set [2] (After placement, Light, 5 days), “Purity: 99.67 A %”. The values for the Purity result in data set [2] (setting [15]) and in data set [2] (Before placement) were “Purity: 99.60 A %” and “Purity: 99.81 A %”, respectively. Further, the solubility in data set [3] (potassium dihydrogen phosphate/sodium hydroxide buffer, aqueous buffer, pH 6.0, potassium dihydrogen phosphate/sodium hydroxide) is 1900 µg/mL; in data set [3] (potassium dihydrogen phosphate/sodium hydroxide buffer, aqueous buffer, pH 6.8, potassium dihydrogen phosphate/sodium hydroxide), 2100 µg/mL; in data set [3] (potassium dihydrogen phosphate/sodium hydroxide buffer, aqueous buffer, pH 7.4, potassium dihydrogen phosphate/sodium hydroxide) it was 2100 µg/mL; in data set [3] (simulated gastric fluid, pH 1.0, dilute hydrochloric acid with water), 87200 µg/mL; in data set [3] (simulated gastric fluid, pH 2.0, dilute hydrochloric acid with water), 4700 µg/mL; in data set [3] (sodium acetate trihydrate/glacial acetic acid buffer, aqueous buffer, pH 4.5, sodium acetate trihydrate/glacial acetic acid) it was 2000 µg/mL. Further, in data set [3] (water), the solubility came to 1400 µg/mL.

`COCc1ccc(Nc2nc(Nc3ccc4c(c3)CC[C@@H](N3CCCC3)CC4)ncc2Cl)c(P(C)(C)=O)c1` [free base crystal form A, (S)-(2-((5-chloro-2-((7-(pyrrolidin-1-yl)-6,7,8,9-tetrahydro-5H-benzo[7]annulen-2-yl)amino)pyrimidin-4-yl)amino)-5-(methoxymethyl)phenyl)dimethylphosphine oxide]: the Crystal form entry in data set [2] (setting [7]), in data set [2] (setting [8]) and in data set [2] (Before placement) was “Crystal form A” in each case. In addition, the Maximum single impurity result in data set [2] (setting [7]) is given as “impurity: 0.75 A %”; in data set [2] (setting [8]) it was “impurity: 1.21 A %”; in data set [2] (setting [9]), “impurity: 2.02 A %”; in data set [2] (Before placement) it was “impurity: 0.05 A %”. Further, the Purity entry was “Purity: 96.39 A %” in data set [2] (setting [7]), “Purity: 94.49 A %” in data set [2] (setting [8]), “Purity: 89.65 A %” in data set [2] (setting [9]) and “Purity: 99.33 A %” in data set [2] (Before placement).
